PubChem BioAssay (NCI)
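Compound exposure: 48 hours, 5 concentrations, 96-well plates. GI50 marks 50% less growth. Definition used: TGI = concentration required for complete inhibition of growth.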

Tests used:
Test in all cases: NCI tumour cell line growth inhibition, 48 h
[1] = test system: MCF7 breast
[2] = test system: SK-OV-3 ovarian
[3] = test system: SK-MEL-28 melanoma
[4] = test system: SR leukemia
[5] = test system: HT29 colon
[6] = test system: T-47D breast
[7] = test system: MDA-MB-231 breast
[8] = test system: NCI-H23 lung
[9] = test system: NCI-H460 lung
[10] = test system: HCC-2998 colon
[11] = test system: HCT-116 colon
[12] = test system: ACHN renal
[13] = test system: EKVX NSCLC
[14] = test system: UACC-257 melanoma
[15] = test system: SNB-19 CNS
[16] = test system: NCI/ADR-RES ovarian
[17] = test system: MDA-MB-435
[18] = test system: COLO 205 colon
[19] = test system: SNB-75 CNS
[20] = test system: IGROV1 ovarian
[21] = test system: KM12 colon
[22] = test system: SK-MEL-2 melanoma
[23] = test system: HCT-15 colon
[24] = test system: MOLT-4 leukemia
[25] = test system: SF-295 CNS
[26] = test system: SF-268 CNS
[27] = test system: DU-145 prostate
[28] = test system: HOP-92 NSCLC
[29] = test system: OVCAR-3 ovarian
[30] = test system: 786-0 renal
[31] = test system: A549 NSCLC
[32] = test system: TK-10 renal
[33] = test system: CAKI-1 renal
[34] = test system: A498 renal
[35] = test system: PC-3 prostate
[36] = test system: OVCAR-5 ovarian
[37] = test system: RPMI-8226 leukemia
[38] = test system: K-562 leukemia
[39] = test system: M14 melanoma
[40] = test system: SF-539 CNS
[41] = test system: SW-620 colon
[42] = test system: NCI-H522 lung
[43] = test system: NCI-H226 lung
[44] = test system: OVCAR-8 ovarian
[45] = test system: RXF 393 renal
[46] = test system: SN12C renal
[47] = test system: LOX IMVI melanoma
[48] = test system: CCRF-CEM leukemia
[49] = test system: UACC-62 melanoma
[50] = test system: UO-31 renal
[51] = test system: OVCAR-4 ovarian
[52] = test system: SK-MEL-5 melanoma
[53] = test system: BT-549 breast
[54] = test system: HOP-62 NSCLC
[55] = test system: MALME-3M melanoma
[56] = test system: U251 CNS
[57] = test system: HL-60(TB) leukemia
[58] = test system: HS 578T breast

SMILES: O=C1CCc2c(Oc3ccc4c(c3)[C@H]3[C@@H](O4)[C@@H]3c3nc4ccc(C(F)(F)F)cc4[nH]3)ccnc2N1
- GI50 [1]: 2250 nM
- TGI [1]: > 100000 nM
- GI50 [2]: 3540 nM
- TGI [2]: > 100000 nM
- GI50 [3]: 32.6 nM
- TGI [3]: 3800 nM
- GI50 [4]: 2560 nM
- TGI [4]: > 25200 nM
- GI50 [5]: 30.2 nM
- TGI [5]: > 37600 nM
- GI50 [6]: 1370 nM
- TGI [6]: > 27100 nM
- GI50 [7]: 610 nM
- TGI [7]: 8280 nM
- GI50 [8]: 1420 nM
- TGI [8]: > 100000 nM
- GI50 [9]: 2410 nM
- TGI [9]: > 100000 nM
- GI50 [10]: 3080 nM
- TGI [10]: > 100000 nM
- GI50 [11]: 406 nM
- TGI [11]: > 100000 nM
- GI50 [12]: 711 nM
- TGI [12]: > 100000 nM
- GI50 [13]: 2990 nM
- TGI [13]: > 100000 nM
- GI50 [14]: 32.3 nM
- GI50 [15]: 4520 nM
- TGI [15]: > 100000 nM
- GI50 [16]: 2830 nM
- TGI [16]: > 100000 nM
- GI50 [17]: 68.2 nM
- TGI [17]: > 100000 nM
- GI50 [18]: 35.9 nM
- TGI [18]: 8390 nM
- GI50 [19]: 4390 nM
- TGI [19]: > 100000 nM
- GI50 [20]: 1190 nM
- TGI [20]: > 100000 nM
- GI50 [21]: 690 nM
- TGI [21]: > 100000 nM
- GI50 [22]: 242 nM
- TGI [22]: 1670 nM
- GI50 [23]: 2400 nM
- TGI [23]: > 100000 nM
- GI50 [24]: 1660 nM
- TGI [24]: > 100000 nM
- GI50 [25]: 3630 nM
- TGI [25]: > 100000 nM
- GI50 [26]: 2730 nM
- TGI [26]: > 100000 nM
- GI50 [27]: 4120 nM
- TGI [27]: > 100000 nM
- GI50 [28]: 1180 nM
- TGI [28]: 5680 nM
- GI50 [29]: 4180 nM
- TGI [29]: > 100000 nM
- GI50 [30]: 6280 nM
- TGI [30]: > 100000 nM
- GI50 [31]: 2520 nM
- TGI [31]: > 100000 nM
- GI50 [32]: 1610 nM
- TGI [32]: > 30300 nM
- GI50 [33]: 1470 nM
- TGI [33]: > 100000 nM
- GI50 [34]: 1120 nM
- TGI [34]: 4240 nM
- GI50 [35]: 3970 nM
- TGI [35]: > 100000 nM
- GI50 [36]: 1070 nM
- TGI [36]: > 100000 nM
- GI50 [37]: 2560 nM
- TGI [37]: > 100000 nM
- GI50 [38]: 38.1 nM
- GI50 [39]: 26 nM
- TGI [39]: 2710 nM
- GI50 [40]: 4660 nM
- TGI [40]: > 100000 nM
- GI50 [41]: 2430 nM
- TGI [41]: > 100000 nM
- GI50 [42]: 903 nM
- TGI [42]: > 28100 nM
- GI50 [43]: 1100 nM
- TGI [43]: > 100000 nM
- GI50 [44]: 3120 nM
- TGI [44]: > 100000 nM
- GI50 [45]: 4030 nM
- TGI [45]: > 100000 nM
- GI50 [46]: 2210 nM
- TGI [46]: > 100000 nM
- GI50 [47]: 102 nM
- TGI [47]: 4650 nM
- GI50 [48]: 3540 nM
- TGI [48]: > 100000 nM
- GI50 [49]: 21.5 nM
- TGI [49]: 1410 nM
- GI50 [50]: 693 nM
- TGI [50]: > 25300 nM
- GI50 [51]: 2020 nM
- TGI [51]: > 100000 nM
- GI50 [52]: 435 nM
- TGI [52]: 2910 nM
- GI50 [53]: 3220 nM
- TGI [53]: > 100000 nM
- GI50 [54]: 2450 nM
- TGI [54]: > 100000 nM
- GI50 [55]: < 13.7 nM
- TGI [55]: 61.3 nM
- GI50 [56]: 3920 nM
- TGI [56]: > 100000 nM
- GI50 [57]: 237 nM
- TGI [57]: 3140 nM
- GI50 [58]: 5410 nM
- TGI [58]: > 100000 nM
